ChEMBL document CHEMBL3351970 (Bioorg Med Chem Lett, 2014)
Blank lines part the entries; values can stand above or below the compound they belong to.

Legend:
[1] = molecular target: T1, Transient receptor potential cation channel subfamily V member 1 (Homo sapiens, UniProt Q8NER1); test: Antagonist activity against human TRPV1 expressed in CHO cells assessed as inhibition of capsaicin-induced channel activation by FLIPR assay; format: cell-based
[2] = tested on: Mus musculus; test: Anti-allodynic activity in orally dosed mouse model of chronic constriction injury-induced neuropathic pain assessed as inhibition of pain response; format: functional; conditions: po
[3] = tested on: Mus musculus; test: Inhibition of capsaicin-induced hypothermia in mouse administered orally 15 mins before capsaicin challenge and measured 30 mins post capsaicin injection; format: functional, organism-based
[4] = tested on: Mus musculus; test: Inhibition of capsaicin-induced hypothermia in mouse at 1 mg/kg, po administered 15 mins before capsaicin challenge and measured 30 mins post capsaicin injection; format: functional
[5] = tested on: Mus musculus; test: Anti-allodynic activity in mouse model of chronic constriction injury-induced neuropathic pain assessed as inhibition of pain response at 0.1 mg/kg, po; format: functional
[6] = molecular target: T1, Transient receptor potential cation channel subfamily V member 1; test: Antagonist activity against human TRPV1 expressed in CHO cells assessed as inhibition of pH-induced channel activation by FLIPR assay; format: cell-based
[7] = molecular target: T1, Transient receptor potential cation channel subfamily V member 1; test: Antagonist activity against human TRPV1 expressed in CHO cells assessed as inhibition of 45 degC heat-induced channel activation by FLIPR assay; format: cell-based
[8] = molecular target: T1, Transient receptor potential cation channel subfamily V member 1; test: Antagonist activity against human TRPV1 expressed in CHO cells assessed as inhibition of NADA-induced channel activation by FLIPR assay; format: cell-based
[9] = tested on: Mus musculus; test: Anti-allodynic activity in mouse model of chronic constriction injury-induced neuropathic pain assessed as inhibition of pain response at 0.001 mg/kg, po; format: functional
[10] = tested on: Mus musculus; test: Inhibition of capsaicin-induced hypothermia in mouse at 0.3 mg/kg, po administered 15 mins before capsaicin challenge and measured 30 mins post capsaicin injection; format: functional
[11] = tested on: Mus musculus; test: Anti-allodynic activity in mouse model of chronic constriction injury-induced neuropathic pain assessed as inhibition of pain response at 0.0001 mg/kg, po; format: functional
[12] = tested on: Mus musculus; test: Inhibition of capsaicin-induced hypothermia in mouse at 0.1 mg/kg, po administered 15 mins before capsaicin challenge and measured 30 mins post capsaicin injection; format: functional
[13] = tested on: Mus musculus; test: Inhibition of capsaicin-induced hypothermia in mouse at 10 mg/kg, po administered 15 mins before capsaicin challenge and measured 30 mins post capsaicin injection; format: functional
[14] = tested on: Mus musculus; test: Anti-allodynic activity in mouse model of chronic constriction injury-induced neuropathic pain assessed as inhibition of pain response at 0.01 mg/kg, po; format: functional

T1 sequence (Q8NER1 whole entry): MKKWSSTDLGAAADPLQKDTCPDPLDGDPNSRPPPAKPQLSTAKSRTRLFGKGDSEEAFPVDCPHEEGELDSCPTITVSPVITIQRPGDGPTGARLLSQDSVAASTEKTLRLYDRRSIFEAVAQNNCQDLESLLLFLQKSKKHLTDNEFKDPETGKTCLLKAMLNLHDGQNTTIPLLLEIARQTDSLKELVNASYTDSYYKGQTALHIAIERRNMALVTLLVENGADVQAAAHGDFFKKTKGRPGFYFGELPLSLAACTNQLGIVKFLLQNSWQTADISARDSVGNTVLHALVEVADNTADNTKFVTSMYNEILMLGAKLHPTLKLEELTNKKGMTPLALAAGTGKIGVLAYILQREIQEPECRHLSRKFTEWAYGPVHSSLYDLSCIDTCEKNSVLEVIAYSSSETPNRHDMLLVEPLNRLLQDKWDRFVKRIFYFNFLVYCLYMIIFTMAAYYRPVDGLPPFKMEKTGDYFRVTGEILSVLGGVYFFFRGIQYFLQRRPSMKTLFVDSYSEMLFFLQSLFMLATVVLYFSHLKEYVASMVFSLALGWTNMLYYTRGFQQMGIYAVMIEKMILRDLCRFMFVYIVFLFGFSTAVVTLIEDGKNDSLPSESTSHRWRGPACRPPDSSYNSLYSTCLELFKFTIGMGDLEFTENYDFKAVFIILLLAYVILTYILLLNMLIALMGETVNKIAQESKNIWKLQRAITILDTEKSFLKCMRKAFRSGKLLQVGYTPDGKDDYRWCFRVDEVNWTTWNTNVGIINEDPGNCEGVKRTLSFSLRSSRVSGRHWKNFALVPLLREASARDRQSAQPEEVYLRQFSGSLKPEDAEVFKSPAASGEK

Compound: CC(C(=O)NCc1ccc(C(F)(F)F)nc1/C=C/c1ccccc1)c1ccc(NS(C)(=O)=O)c(F)c1 (stereo unspecified)
Ki [1]: 2.2 nM

Compound: CC(C(=O)NCc1ccc(C(F)(F)F)nc1-c1cc2ccccc2s1)c1ccc(NS(C)(=O)=O)c(F)c1 (stereo unspecified)
Ki [1]: 1 nM

Compound: CC(C(=O)NCc1ccc(C(F)(F)F)nc1Cc1ccccc1)c1ccc(NS(C)(=O)=O)c(F)c1 (stereo unspecified)
Ki [1]: 141 nM

Compound: CC(C(=O)NCc1ccc(C(F)(F)F)nc1-c1ccc(F)cc1)c1ccc(NS(C)(=O)=O)c(F)c1 (stereo unspecified)
ED50 [2]: 0.01 mg/kg | inhibition [3]: Dose-dependent effect | inhibition in vivo at 1 mg/kg [4]: 60% | MPE [5]: 47.1% | Ki [6]: 131 nM | Ki [7]: 25.9 nM | Ki [8]: 0.84 nM | MPE [9]: 30.5% | inhibition in vivo at 0.3 mg/kg [10]: 38% | MPE [11]: 21.9% | inhibition in vivo at 0.1 mg/kg [12]: 25% | inhibition in vivo at 10 mg/kg [13]: 91% | MPE [14]: 52.9%

Compound: COc1cc(OC)cc(-c2nc(C(F)(F)F)ccc2CNC(=O)C(C)c2ccc(NS(C)(=O)=O)c(F)c2)c1 (stereo unspecified)
Ki [1]: 58 nM

Continued, values first:

Ki [1]: 36.1 nM
Compound: CC(C(=O)NCc1ccc(C(F)(F)F)nc1-n1ccnc1)c1ccc(NS(C)(=O)=O)c(F)c1 (stereo unspecified)

Ki [1]: 5.8 nM
Compound: CC(C(=O)NCc1ccc(C(F)(F)F)nc1-c1ccco1)c1ccc(NS(C)(=O)=O)c(F)c1 (stereo unspecified)

Ki [1]: 2 nM
Compound: CC(C(=O)NCc1ccc(C(F)(F)F)nc1-c1ccsc1)c1ccc(NS(C)(=O)=O)c(F)c1 (stereo unspecified)

Ki [1]: 1.4 nM
Compound: CC(C(=O)NCc1ccc(C(F)(F)F)nc1-c1ccoc1)c1ccc(NS(C)(=O)=O)c(F)c1 (stereo unspecified)
